These results are taken from patent publication US7598258B2, “Quinoline derivatives and quinazoline derivatives inhibiting autophosphorylation of macrophage colony stimulating factor receptor” (Kirin Beer Kabushiki Kaisha, priority 2002, dated 2009).

SMILES strings stand for the structures.

One experiment addresses T1, Human KDR (Homo sapiens, UniProt P35968).
T1 construct: expressed in transfected cells; host or cells: NIH3T3 cells (mouse fibroblasts)
The experiment in a line: Inhibition of KDR phosphorylation in human KDR-transfected NIH3T3 cells (ELISA). Type of experiment: cell-based. Particulars: for Selection ratio (KDR phosphorylation IC50 / c-fms phosphorylation IC50): class 0-3; for IC50: human KDR-transfected NIH3T3 cells, VEGF 100 ng/ml, ELISA, read-out: KDR phosphorylation 50% inhibitory concentration (IC50). A digest of the protocol:
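NIH3T3 cells transfected with human KDR, in 0.1% FCS medium, treated with compound 1 hr at 37° C, then stimulated with VEGF 100 ng/ml for 2 min. Lysate KDR phosphorylation measured by anti-phosphotyrosine capture/anti-KDR ELISA (A450); IC50 from inhibition normalized between VEGF-stimulated and unstimulated wells.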

The next experiment concerns BAC-1.2F5 cell line. The experiment in a line: Inhibition of M-CSF-dependent cell growth of macrophage-like cell line BAC-1.2F5 (MTS). Type of experiment: cell-based, mouse. Particulars: 72 hr, M-CSF 50 ng/ml, FIG. 1. How it is done:
Macrophage-like cell line BAC-1.2F5 which expresses c-fms as a M-CSF receptor on cell membranes (CLAUDIA M. et al., J. Cell. Physiol., 130, 420-427 (1987), “Isolation and Characterization of a Cloned Growth Factor Dependent Macrophage Cell Line, BAC1.2F5”) was cultured at 37° C. in a DMEM medium containing L-cell supernatant and 10% fetal calf serum (purchased from GIBCO BRL) in a 5% CO2 incubator until about 50 to 70% confluent. The harvested cells were inoculated into wells, each containing a 10% fetal calf serum-containing DMEM medium with human recombinant M-CSF being added thereto to a final concentration of 50 ng/ml, in a 96-well flat-bottom plate at a density of 5.0×10^3 per well, and cultured at 37° C. for 24 hr. A test compound dissolved in dimethyl sulfoxide was then added to each well to a target concentration, and cells were incubated at 37° C. in a 5% CO2 incubator for 72 hr. Thereafter, 20 μl of an MTS reagent (purchased from Promega) was added to each well, followed by incubation at 37° C. in a 5% CO2 incubator for 2 hr. Thereafter, absorbance at 490 nm was measured with a microplate reader. The cell growth rate with the addition of the test compound was determined by presuming the absorbance without the addition of the test compound and with the addition of M-CSF to be 100% cell growth and the absorbance without the addition of the test compound and M-CSF to be 0% cell growth. The concentration of the test compound was varied on several levels, and the cell growth rate in each case was calculated.

For experiment [1], the system named is bone metastasis of A375 human melanoma cells. Kind of experiment: Nude mouse bone metastasis model using human melanoma cells (A375). Type of experiment: in vivo, nude mice. Particulars: oral 40 mg/kg/day (20 mg twice a day), 28 days, p<0.01 vs. vehicle control, FIG. 3. How it is done:
From the next day of the transplantation, for 28 days twice a day, the test compound was orally administered to the treatment group at 40 mg/kg/day, and the medium was orally administered to the control group. On 21 and 28 days after the transplantation, the mice were radiographed. For the images thus obtained, the bone resorption pore area in femora and fibiae attributable to bone metastasis of melanoma in each individual were calculated with an image analysis software (Image Gauge, FUJI FILM) to determine the average value for each group. The drug efficacy was evaluated by comparing the area of the test compound administered group with the area of the control group.

T1 sequence (P35968 20-1356): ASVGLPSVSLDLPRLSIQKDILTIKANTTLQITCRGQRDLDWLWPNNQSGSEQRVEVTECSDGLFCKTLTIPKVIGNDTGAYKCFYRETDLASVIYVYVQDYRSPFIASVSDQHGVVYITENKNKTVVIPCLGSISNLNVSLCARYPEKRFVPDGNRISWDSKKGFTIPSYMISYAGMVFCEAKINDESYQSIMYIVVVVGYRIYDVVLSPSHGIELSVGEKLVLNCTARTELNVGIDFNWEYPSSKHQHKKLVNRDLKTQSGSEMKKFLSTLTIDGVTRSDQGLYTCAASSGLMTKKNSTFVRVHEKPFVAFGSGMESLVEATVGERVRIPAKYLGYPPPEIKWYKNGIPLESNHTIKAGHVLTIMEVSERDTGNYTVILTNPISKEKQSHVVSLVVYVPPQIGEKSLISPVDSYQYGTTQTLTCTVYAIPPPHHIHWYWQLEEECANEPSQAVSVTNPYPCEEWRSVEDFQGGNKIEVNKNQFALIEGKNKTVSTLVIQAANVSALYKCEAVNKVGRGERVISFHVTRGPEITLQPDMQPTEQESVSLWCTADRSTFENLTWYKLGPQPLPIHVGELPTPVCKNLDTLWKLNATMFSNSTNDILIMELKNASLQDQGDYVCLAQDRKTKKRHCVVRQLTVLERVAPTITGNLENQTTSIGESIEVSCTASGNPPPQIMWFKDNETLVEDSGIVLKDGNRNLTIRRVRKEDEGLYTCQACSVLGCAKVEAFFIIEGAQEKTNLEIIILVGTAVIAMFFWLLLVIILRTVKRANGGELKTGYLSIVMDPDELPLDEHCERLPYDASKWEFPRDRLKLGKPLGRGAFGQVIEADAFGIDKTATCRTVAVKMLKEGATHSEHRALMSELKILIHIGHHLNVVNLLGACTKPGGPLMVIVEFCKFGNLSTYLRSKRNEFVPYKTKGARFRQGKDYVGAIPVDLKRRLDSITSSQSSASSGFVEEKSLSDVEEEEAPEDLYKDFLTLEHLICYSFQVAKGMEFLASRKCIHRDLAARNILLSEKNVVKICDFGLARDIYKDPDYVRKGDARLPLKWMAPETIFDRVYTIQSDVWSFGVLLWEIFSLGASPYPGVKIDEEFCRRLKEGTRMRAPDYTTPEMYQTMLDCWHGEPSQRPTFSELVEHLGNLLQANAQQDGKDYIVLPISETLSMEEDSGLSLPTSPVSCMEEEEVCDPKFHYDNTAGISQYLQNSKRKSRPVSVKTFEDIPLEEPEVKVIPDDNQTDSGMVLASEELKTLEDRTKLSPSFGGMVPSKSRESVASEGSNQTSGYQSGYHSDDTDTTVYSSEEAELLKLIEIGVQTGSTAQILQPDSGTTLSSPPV

On to `COc1cc(Oc2ccnc3cc(OC)c(OC)cc23)ccc1NC(=O)N[C@H](C)c1ccc(F)cc1` [Example 18, N-{4-[(6,7-Dimethoxy-4-quinolyl)oxy]-2-methoxyphenyl}-N′-[(1R)-1-(4-fluorophenyl)ethyl]urea], for which, at Human KDR, the “Selection ratio (KDR phosphorylation IC50 / c-fms phosphorylation IC50)” value is 0 (KDR phosphorylation 50% inhibitory concentration [μM]/c-fms phosphorylation 50% inhibitory concentration [μM] was less than 5) and the IC50 was found to be 1.8 nM. The “inhibition of M-CSF-dependent cell growth of BAC-1.2F5” value (“inhibition … of BAC-1.2F5” below) in the experiment on BAC-1.2F5 cell line was “concentration-dependent inhibition”.
As to `COc1cc(Oc2ccnc3cc(OC)c(OC)cc23)ccc1NC(=O)NC(C)c1nccs1` (centres unmarked) [Example 74, N-{4-[(6,7-Dimethoxy-4-quinolyl)oxy]-2-methoxyphenyl}-N′-[1-(1,3-thiazol-2-yl)ethyl]urea], the “inhibition of expansion of bone resorption area involved in bone metastasis of melanoma” value in experiment [1] is “inhibiting the expansion of bone resorption area”. Also, the “inhibition … of BAC-1.2F5” value in the experiment on BAC-1.2F5 cell line is “concentration-dependent inhibition”.
For `COc1cc2nccc(Oc3ccc(NC(=O)N[C@H](C)c4ccccc4OC)cc3)c2cc1OC` [Example 52, N-{4-[(6,7-Dimethoxy-4-quinolyl)oxy]phenyl}-N′-[(1R)-1-(2-methoxyphenyl)ethyl]urea], at Human KDR, the “Selection ratio (KDR phosphorylation IC50 / c-fms phosphorylation IC50)” value is 0 (KDR phosphorylation 50% inhibitory concentration [μM]/c-fms phosphorylation 50% inhibitory concentration [μM] was less than 5) and the IC50 is 7.2 nM.
Turning to `COc1cc2nccc(Oc3ccc(NC(=O)NC(C)c4ccc(F)cc4)cc3Cl)c2cc1OC` (centres unmarked) [Example 10, N-{3-Chloro-4-[(6,7-dimethoxy-4-quinolyl)oxy]phenyl}-N′-[1-(4-fluorophenyl)ethyl]urea], at Human KDR, the “Selection ratio (KDR phosphorylation IC50 / c-fms phosphorylation IC50)” value is 0 (KDR phosphorylation 50% inhibitory concentration [μM]/c-fms phosphorylation 50% inhibitory concentration [μM] was less than 5) and the IC50 is 3 nM.
The like results for `COc1cc2nccc(Oc3ccc(NC(=O)NC(C)c4ccc(F)cc4)c(C)c3C)c2cc1OC` (centres unmarked) [Example 25, N-{4-[(6,7-Dimethoxy-4-quinolyl)oxy]-2,3-dimethylphenyl}-N′-[1-(4-fluorophenyl)ethyl]urea] were, in that order, 0 (KDR phosphorylation 50% inhibitory concentration [μM]/c-fms phosphorylation 50% inhibitory concentration [μM] was less than 5) and 3.5 nM.
For `COc1cc2nccc(Oc3ccc(NC(=O)N[C@@H](C)c4nccs4)c(F)c3)c2cc1OC` [Example 71, N-{4-[(6,7-Dimethoxy-4-quinolyl)oxy]-2-fluorophenyl}-N′-[(1S)-1-(1,3-thiazol-2-yl)ethyl]urea], in that order: 2 (when the value was 10 or more) and 39.9 nM.
The like results for `COc1cc2nccc(Oc3ccc(NC(=O)N[C@H](C)c4ccc(F)cc4)cc3OC)c2cc1OC` [Example 24, N-{4-[(6,7-Dimethoxy-4-quinolyl)oxy]-3-methoxyphenyl}-N′-[(1R)-1-(4-fluorophenyl)ethyl]urea] were, in that order, 0 (KDR phosphorylation 50% inhibitory concentration [μM]/c-fms phosphorylation 50% inhibitory concentration [μM] was less than 5) and 2.4 nM.
As to `COc1cc2nccc(Oc3ccc(NC(=O)NC(C)c4ccc(F)cc4)cc3)c2cc1OC` (centres unmarked) [Example 1, N-{4-[(6,7-Dimethoxy-4-quinolyl)oxy]phenyl}-N′-[1-(4-fluorophenyl)ethyl]urea], on Human KDR, the “Selection ratio (KDR phosphorylation IC50 / c-fms phosphorylation IC50)” value was 0 (KDR phosphorylation 50% inhibitory concentration [μM]/c-fms phosphorylation 50% inhibitory concentration [μM] was less than 5) and the IC50 stood at 1.1 nM.
For `COc1cc2nccc(Oc3cc(C)c(NC(=O)N[C@H](C)c4cccc(Br)c4)cc3C)c2cc1OC` [Example 56, N-[(1R)-1-(3-Bromophenyl)ethyl]-N′-{4-[(6,7-dimethoxy-4-quinolyl)oxy]-2,5-dimethylphenyl}urea], in that order: 0 (KDR phosphorylation 50% inhibitory concentration [μM]/c-fms phosphorylation 50% inhibitory concentration [μM] was less than 5) and 9.6 nM.
For `COc1cc(Oc2ccnc3cc(OC)c(OC)cc23)ccc1NC(=O)N[C@H](C)c1cccc(Br)c1` [Example 59, N-[(1R)-1-(3-Bromophenyl)ethyl]-N′-{4-[(6,7-dimethoxy-4-quinolyl)oxy]-2-methoxyphenyl}urea], in that order: 0 (KDR phosphorylation 50% inhibitory concentration [μM]/c-fms phosphorylation 50% inhibitory concentration [μM] was less than 5) and 8.7 nM.
The like results for `COc1cc2nccc(Oc3ccc(NC(=O)NC(C)c4nc(C)cs4)cc3)c2cc1OC` (centres unmarked) [Example 91, N-{4-[(6,7-Dimethoxy-4-quinolyl)oxy]phenyl}-N′-[1-(4-methyl-1,3-thiazol-2-yl)ethyl]urea] were, in that order, 1 (when the value was 5 or more) and 28.8 nM.
Take `COc1cc(Oc2ccnc3cc(OC)c(OC)cc23)ccc1NC(=O)NC(C)c1ccc(F)cc1` (centres unmarked) [Example 16, N-{4-[(6,7-Dimethoxy-4-quinolyl)oxy]-2-methoxyphenyl}-N′-[1-(4-fluorophenyl)ethyl]urea]: at Human KDR, the “Selection ratio (KDR phosphorylation IC50 / c-fms phosphorylation IC50)” value was 0 (KDR phosphorylation 50% inhibitory concentration [μM]/c-fms phosphorylation 50% inhibitory concentration [μM] was less than 5) and the IC50 stood at 3.1 nM.
Regarding `COc1cc(Oc2ccnc3cc(OC)c(OC)cc23)ccc1NC(=O)N[C@@H](C)c1ccc(F)cc1` [Example 17, N-{4-[(6,7-Dimethoxy-4-quinolyl)oxy]-2-methoxyphenyl}-N′-[(1S)-1-(4-fluorophenyl)ethyl]urea], on Human KDR, the “Selection ratio (KDR phosphorylation IC50 / c-fms phosphorylation IC50)” value is 3 (when the value was 50 or more) and the IC50 was 315 nM. The “selective inhibition of c-fms rather than KDR (in words)” value on Human KDR (in vitro) is reported as “selectively inhibit c-fms rather than KDR”. Besides, the “inhibition … of BAC-1.2F5” value in the experiment on BAC-1.2F5 cell line is “concentration-dependent inhibition”.
